# Laboratory results taken from ChEMBL document CHEMBL1201862, “PubChem BioAssay data set” (2004).
# The source made the active and inactive calls.
# Tests used:
# [1] = (§1) Counterscreen for antagonists of the orexin 1 receptor (OX1R; HCRTR1): Fluorescence-based cell-based high throughput dose response assay to identify antagonists of the parental CHO cell line. [Related pubchem assays (depositor defined):AID434989, AID435008, AID463079, AID485270, AID492963, AID492964, AID492965, AID493232, AID504699, AID504701]; format: functional
# Orexin receptor type 2 [2] = biological target: T1, Orexin receptor type 2 (Homo sapiens, UniProt O43614); test: Counterscreen assay for antagonists of the orexin 1 receptor (OX1R; HCRTR1): Fluorescence-based cell-based dose response assay for antagonists of the orexin 2 receptor (OX2R; HCRTR2), run by assay provider.; format: functional
# T1 sequence (O43614 whole entry): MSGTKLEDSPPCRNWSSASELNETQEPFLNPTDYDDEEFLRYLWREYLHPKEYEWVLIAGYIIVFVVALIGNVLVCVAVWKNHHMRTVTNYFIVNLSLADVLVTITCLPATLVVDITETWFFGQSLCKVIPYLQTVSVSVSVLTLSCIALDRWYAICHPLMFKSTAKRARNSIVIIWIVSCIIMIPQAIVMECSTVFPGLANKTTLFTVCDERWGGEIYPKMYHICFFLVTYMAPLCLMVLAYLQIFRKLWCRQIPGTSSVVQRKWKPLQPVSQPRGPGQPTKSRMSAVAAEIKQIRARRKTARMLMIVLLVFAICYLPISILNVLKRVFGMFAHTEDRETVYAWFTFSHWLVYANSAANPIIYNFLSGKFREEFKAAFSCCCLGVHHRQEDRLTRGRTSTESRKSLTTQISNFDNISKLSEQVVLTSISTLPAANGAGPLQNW
# [3] = biological target: T2, Orexin/Hypocretin receptor type 1 (Homo sapiens, UniProt O43613); test: Homogeneous Time Resolved Fluorescence (HTRF)-based cell-based high throughput dose response assay for antagonists of the orexin 1 receptor (OX1R; HCRTR1). [Related pubchem assays (depositor defined):AID434989, AID435008, AID463079, AID485270, AID492963, AID492964, AID492965, AID493232, AID504717, AID504718]; format: functional
# T2 sequence (O43613 whole entry): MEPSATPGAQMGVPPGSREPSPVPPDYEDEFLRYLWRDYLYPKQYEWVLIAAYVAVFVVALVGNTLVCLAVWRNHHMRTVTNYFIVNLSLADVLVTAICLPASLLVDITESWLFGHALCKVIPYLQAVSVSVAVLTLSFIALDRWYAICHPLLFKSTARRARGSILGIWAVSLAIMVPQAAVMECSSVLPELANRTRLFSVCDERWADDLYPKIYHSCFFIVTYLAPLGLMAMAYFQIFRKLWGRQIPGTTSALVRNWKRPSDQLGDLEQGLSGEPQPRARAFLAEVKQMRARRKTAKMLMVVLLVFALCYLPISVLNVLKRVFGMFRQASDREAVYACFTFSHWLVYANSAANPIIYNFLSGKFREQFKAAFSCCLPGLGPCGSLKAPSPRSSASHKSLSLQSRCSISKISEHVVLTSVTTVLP
# [4] = biological target: T2, Orexin/Hypocretin receptor type 1; test: Fluorescence-based cell-based high throughput dose response assay for antagonists of the orexin 1 receptor (OX1R; HCRTR1). [Related pubchem assays (depositor defined):AID434989, AID435008, AID463079, AID485270, AID492963, AID492964, AID492965, AID493232, AID504717, AID504718]; format: functional
# CHO-K1 = test: as §1, with “Homogeneous time resolved fluorescence (HTRF)-based” for “Fluorescence-based”, “cell-based” for “cell-based high throughput”, “CHO-K1” for “CHO”; format: functional; conditions: Cricetulus griseus;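 also: potency for inhibition of ATP-stimulated IP1 production as antagonists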
# Orexin receptor type 2 [5] = biological target: T1, Orexin receptor type 2; test: Counterscreen assay for antagonists of the orexin 1 receptor (OX1R; HCRTR1): Homogeneous Time Resolved Fluorescence (HTRF)-based cell-based dose response assay for antagonists of the orexin 2 receptor (OX2R; HCRTR2), run by assay provider.; format: functional
# [6] = A Cell Based Secondary Assay To Explore Cytotoxicity of Compounds that Sensitize Mycobacterium Tuberculosis to Beta-Lactam Antibiotics.; format: functional
# [7] = biological target: T3, Corticotropin-releasing factor receptor 2/Corticotropin-releasing factor-binding protein (Homo sapiens, UniProt P24387+Q13324); test: Dose Response confirmation of uHTS hits for small molecule antagonists of the CRF-binding protein and CRF-R2 receptor complex.; format: functional; conditions: read-out: IC50_Mean
# T3 sequence (Q13324 whole entry): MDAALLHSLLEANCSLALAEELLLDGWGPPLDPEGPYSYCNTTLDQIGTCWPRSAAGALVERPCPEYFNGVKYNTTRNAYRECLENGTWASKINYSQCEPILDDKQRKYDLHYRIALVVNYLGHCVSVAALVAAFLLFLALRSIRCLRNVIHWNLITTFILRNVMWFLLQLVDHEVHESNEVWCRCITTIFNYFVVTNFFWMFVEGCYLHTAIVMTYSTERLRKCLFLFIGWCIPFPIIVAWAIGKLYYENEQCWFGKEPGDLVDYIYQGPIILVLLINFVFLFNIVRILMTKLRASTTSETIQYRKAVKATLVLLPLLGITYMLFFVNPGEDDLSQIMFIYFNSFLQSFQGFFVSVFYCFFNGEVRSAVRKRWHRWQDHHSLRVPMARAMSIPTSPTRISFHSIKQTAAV
# T3 sequence (P24387 whole entry): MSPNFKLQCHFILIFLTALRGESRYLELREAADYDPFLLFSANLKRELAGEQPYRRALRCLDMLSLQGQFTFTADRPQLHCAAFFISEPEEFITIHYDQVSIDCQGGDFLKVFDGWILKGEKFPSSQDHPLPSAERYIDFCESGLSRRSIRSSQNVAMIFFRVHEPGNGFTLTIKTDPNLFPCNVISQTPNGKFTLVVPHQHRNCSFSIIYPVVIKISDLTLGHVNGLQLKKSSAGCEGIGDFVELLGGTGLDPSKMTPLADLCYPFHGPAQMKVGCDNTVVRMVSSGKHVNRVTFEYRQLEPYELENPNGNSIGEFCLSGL
# [8] = biological target: T3, Corticotropin-releasing factor receptor 2/Corticotropin-releasing factor-binding protein; test: activators of CRF receptor 2 with binding protein – uHTS hits, confirmation (AID 602473); format: functional; conditions: read-out: EC50_Mean
# [9] = biological target: T4, High affinity choline transporter 1 (Homo sapiens, UniProt Q9GZV3); test: human choline transporter blockers, potency – cell-based, 10-point CRC, membrane potential dye, dose response (AID 588401); format: functional;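 also: membrane potential dye fluorescence of choline-evoked depolarization via CHT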
# T4 sequence (Q9GZV3 whole entry): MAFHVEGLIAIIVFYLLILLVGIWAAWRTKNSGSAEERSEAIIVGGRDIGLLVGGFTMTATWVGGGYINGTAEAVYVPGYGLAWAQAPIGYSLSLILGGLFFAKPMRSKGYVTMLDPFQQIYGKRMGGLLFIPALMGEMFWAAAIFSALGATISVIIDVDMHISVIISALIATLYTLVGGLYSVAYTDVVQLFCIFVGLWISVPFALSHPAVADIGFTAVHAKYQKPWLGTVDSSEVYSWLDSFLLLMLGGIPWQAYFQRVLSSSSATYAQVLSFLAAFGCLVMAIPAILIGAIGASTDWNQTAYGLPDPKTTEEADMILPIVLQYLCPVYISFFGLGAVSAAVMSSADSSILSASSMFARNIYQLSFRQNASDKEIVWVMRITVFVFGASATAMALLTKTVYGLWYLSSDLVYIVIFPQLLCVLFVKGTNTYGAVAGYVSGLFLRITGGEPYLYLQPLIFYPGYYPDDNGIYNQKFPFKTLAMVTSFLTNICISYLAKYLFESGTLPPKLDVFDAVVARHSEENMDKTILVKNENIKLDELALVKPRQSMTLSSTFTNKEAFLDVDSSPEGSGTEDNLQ
# [10] = biological target: T4, High affinity choline transporter 1; test: human choline transporter blockers, potency – cell-based, 5-point CRC, membrane potential dye, dose response (AID 504840); format: functional
# [11] = blockers of CRF-binding protein–CRF-R2 complex – cell-based, uHTS hits, 384-well, dose response (AID 651639); format: functional, Homo sapiens; conditions: read-out: IC50_Mean
# [12] = viability loss in THP-1 monocytes – THP-1 cells, cytotoxicity control for Vif-APOBEC3G degradation inhibitor project, dose response (AID 1117359); format: functional; conditions: THP-1
# [13] = biological target: Mitochondrial peptide methionine sulfoxide reductase (Bos taurus, UniProt P54149); test: Absorbance-based biochemical high throughput dose response assay for activators of Methionine sulfoxide reductase A (MsrA).; format: functional
# Caspase-8 = Caspase-8 (Homo sapiens, UniProt Q14790); test: inhibitors of purified CASP8 protease – biochemical, Z-IETD-R110 fluorescence, cherry-picked samples, selectivity assay for caspase-6 inhibitor project, dose response (AID 743294)
# Caspase-6 = biological target: T5, Caspase-6 (Homo sapiens, UniProt P55212); test: inhibition of CASP6 peptide cleavage – biochemical, VEID-R110 fluorescence, cherry-pick, dose response (AID 720632)
# T5 sequence (P55212 whole entry): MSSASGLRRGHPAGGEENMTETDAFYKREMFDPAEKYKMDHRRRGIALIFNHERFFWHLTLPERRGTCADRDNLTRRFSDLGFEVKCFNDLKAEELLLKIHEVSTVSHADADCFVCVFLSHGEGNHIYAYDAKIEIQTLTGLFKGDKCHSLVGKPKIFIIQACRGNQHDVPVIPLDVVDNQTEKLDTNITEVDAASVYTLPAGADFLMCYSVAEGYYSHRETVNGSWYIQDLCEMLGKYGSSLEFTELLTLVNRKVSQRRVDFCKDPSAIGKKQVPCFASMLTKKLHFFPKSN
# Caspase-7 = biological target: T6, Caspase-7 (Homo sapiens, UniProt P55210); test: caspase-7 enzyme inhibition, selectivity check – biochemical, DEVD-R110 fluorescence, cherry-pick, selectivity assay for caspase-6 inhibitor project, dose response (AID 743295); format: functional
# T6 sequence (P55210 whole entry): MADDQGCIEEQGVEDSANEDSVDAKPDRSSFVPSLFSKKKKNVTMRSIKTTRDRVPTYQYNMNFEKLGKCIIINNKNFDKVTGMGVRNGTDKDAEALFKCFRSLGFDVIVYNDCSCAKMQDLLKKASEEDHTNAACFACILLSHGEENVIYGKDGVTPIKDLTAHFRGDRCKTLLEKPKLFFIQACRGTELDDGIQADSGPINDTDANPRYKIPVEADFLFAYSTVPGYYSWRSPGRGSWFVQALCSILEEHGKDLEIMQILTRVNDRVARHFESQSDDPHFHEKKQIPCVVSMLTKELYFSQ
# [14] = biological target: Heat shock protein HSP 90-alpha (Homo sapiens, UniProt P07900); format: functional, organism-based
# [15] = biological target: ATP-dependent translocase ABCB1 (Homo sapiens, UniProt P08183); test: inhibition of P-gp mediated JC-1 efflux – Jurkat-DNR cells, flow cytometry, dose response (AID 1689); format: functional
# Sequence of ATP-dependent translocase ABCB1 (P08183 whole entry): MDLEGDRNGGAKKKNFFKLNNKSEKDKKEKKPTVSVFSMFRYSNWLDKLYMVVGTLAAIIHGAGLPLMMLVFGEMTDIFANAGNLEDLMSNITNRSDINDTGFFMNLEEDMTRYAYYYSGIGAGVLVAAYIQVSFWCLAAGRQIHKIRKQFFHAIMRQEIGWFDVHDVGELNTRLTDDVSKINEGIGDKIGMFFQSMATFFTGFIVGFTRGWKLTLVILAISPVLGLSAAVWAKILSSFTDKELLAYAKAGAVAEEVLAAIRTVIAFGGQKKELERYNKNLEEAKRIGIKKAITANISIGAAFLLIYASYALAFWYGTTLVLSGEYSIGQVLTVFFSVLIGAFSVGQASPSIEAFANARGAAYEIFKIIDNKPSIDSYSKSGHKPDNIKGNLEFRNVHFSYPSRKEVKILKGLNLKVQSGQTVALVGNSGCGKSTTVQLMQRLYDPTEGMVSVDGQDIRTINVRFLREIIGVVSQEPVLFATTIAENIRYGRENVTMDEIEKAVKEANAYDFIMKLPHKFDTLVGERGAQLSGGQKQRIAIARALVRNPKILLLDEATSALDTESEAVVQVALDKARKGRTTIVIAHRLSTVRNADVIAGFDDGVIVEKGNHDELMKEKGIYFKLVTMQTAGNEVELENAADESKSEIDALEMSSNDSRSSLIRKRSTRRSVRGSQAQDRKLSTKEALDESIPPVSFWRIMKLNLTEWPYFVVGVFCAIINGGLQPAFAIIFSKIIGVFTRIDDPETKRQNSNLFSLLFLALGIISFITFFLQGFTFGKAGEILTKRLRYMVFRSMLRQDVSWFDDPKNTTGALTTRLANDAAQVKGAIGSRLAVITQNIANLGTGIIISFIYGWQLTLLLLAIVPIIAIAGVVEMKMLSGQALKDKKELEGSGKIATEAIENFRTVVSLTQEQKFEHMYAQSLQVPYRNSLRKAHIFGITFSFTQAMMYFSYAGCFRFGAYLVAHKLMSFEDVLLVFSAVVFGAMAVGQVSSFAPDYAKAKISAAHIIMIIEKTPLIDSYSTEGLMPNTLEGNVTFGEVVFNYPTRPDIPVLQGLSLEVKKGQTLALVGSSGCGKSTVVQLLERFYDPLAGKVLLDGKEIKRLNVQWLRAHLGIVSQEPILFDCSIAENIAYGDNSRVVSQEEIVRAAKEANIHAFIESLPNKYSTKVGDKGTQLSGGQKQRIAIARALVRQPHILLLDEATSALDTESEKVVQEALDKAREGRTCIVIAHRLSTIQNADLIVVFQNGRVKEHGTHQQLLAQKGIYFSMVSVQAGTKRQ
# Sequence of Caspase-8 (Q14790 217-374 limits assumed): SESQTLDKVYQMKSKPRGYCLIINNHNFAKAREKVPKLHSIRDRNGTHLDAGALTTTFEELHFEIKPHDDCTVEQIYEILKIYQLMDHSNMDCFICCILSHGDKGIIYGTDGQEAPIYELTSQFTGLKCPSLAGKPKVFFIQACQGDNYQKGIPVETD
# Sequence of Caspase-8 (Q14790 385-479 limits assumed): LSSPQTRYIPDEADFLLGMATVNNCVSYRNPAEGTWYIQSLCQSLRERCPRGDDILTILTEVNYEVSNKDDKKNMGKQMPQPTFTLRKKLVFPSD
# Sequence of Mitochondrial peptide methionine sulfoxide reductase (P54149 whole entry): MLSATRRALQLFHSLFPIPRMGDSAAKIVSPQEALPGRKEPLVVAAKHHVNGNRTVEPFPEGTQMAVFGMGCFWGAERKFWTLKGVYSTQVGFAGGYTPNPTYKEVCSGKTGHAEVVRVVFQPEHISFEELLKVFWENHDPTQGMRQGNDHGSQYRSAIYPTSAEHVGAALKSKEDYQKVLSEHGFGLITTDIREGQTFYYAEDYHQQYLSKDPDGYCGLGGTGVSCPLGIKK
smiles,measurement,setting,value
O=C(Nc1cccc(S(=O)(=O)NCc2ccco2)c1)c1cc(-c2ccc(F)cc2)nc2ccccc12,IC50,[1],> 49.8 µM (inactive)
same,IC50,Orexin receptor type 2 [2],9.9 µM (active)
same,IC50,[3],6.13 µM (active)
same,IC50,[4],17.2 µM (inactive)
same,IC50,CHO-K1,> 66.2 µM (inactive)
same,IC50,Orexin receptor type 2 [5],> 50 µM (inactive)
same,CC50,[6],2.38 µM (active)
CC(c1ccco1)N(C(=O)c1ccccc1NS(=O)(=O)c1ccc(Cl)c([N+](=O)[O-])c1)c1ccccn1 (stereo not given),IC50,[7],20.3 µM (active)
same,EC50,[8],> 53 µM (inactive)
same,IC50,[9],4.01 µM (active)
same,IC50,[10],0.661 µM (inconclusive)
same,IC50,[11],18 µM (active)
Cc1c2ccccc2nc2c(F)c(N(C)C)c(F)c(F)c12,CC50,[12],> 40 µM (active)
same,IC50,[1],19.7 µM (inactive)
same,IC50,Orexin receptor type 2 [2],32.2 µM (inactive)
same,IC50,[3],1.01 µM (active)
same,IC50,[4],2.19 µM (active)
same,IC50,CHO-K1,> 66.2 µM (inactive)
same,IC50,Orexin receptor type 2 [5],> 50 µM (inactive)
CC(C)(C)c1ccc(NC(=O)COC(=O)c2ccc([N+](=O)[O-])s2)cc1,EC50,[13],54.7 µM (inactive)
same,AC50,Caspase-8,37.4 µM (active)
same,AC50,Caspase-6,3.59 µM (active)
same,AC50,Caspase-7,21.7 µM (active)
same,AC50,[14],2.85 µM (active)
Cc1nc2cc(-c3cccc(F)c3)nn2c(N2CCN(C(=O)c3ccco3)CC2)c1C,EC50,[15],14.6 µM (inactive)
